Four molecules from PMC8892092 (The Journal of Biological Chemistry, 2022) can be followed below.

Broadly, the Km is the substrate concentration at which the rate is half of its maximum. As usually defined, the stoichiometry N is the number of molecules, sites or subunits per partner or assembly.

In series [1] the target is T1, LuHNL (Linum usitatissimum, UniProt P93243, V117T). Format: binding. On the set-up: E. coli SHuffle T7.
Series [2] deals with T1, LuHNL.
Series [3] addresses T1, LuHNL. Format: binding. Further details: E. coli SHuffle T7. This is another data set of the same source.
Series [4] concerns the target LuHNL (Linum usitatissimum, UniProt P93243, V117T/F340A).
The target of series [5] is T1, LuHNL. Format: binding. On the set-up: E. coli SHuffle T7. The source holds these as a separate data set.
Series [6] deals with the molecule itself. Nature of the series: crystal structure; X-ray crystal structures of N-His-LuHNL (ligand-free with glycerol, soaked with acetone cyanohydrin, soaked with (rac)-2-butanone cyanohydrin); sitting drop, 20 °C, 0.1 M BIS-TRIS pH 6.5, 20% PEG MME 5,000; space group P2_(1), two dimers per asymmetric unit.

As for `CC[C@@](C)(O)C#N` [(R)-BCN, (R)-2-butanone cyanohydrin], at LuHNL [1], the “X-ray crystal structure, 1.72 Å” value is “(R)-2-butanone cyanohydrin (BCN) complexed LuHNL (LuHNL_BCN) were determined”.
Regarding `CC(C)(O)C#N` [CNH, acetone cyanohydrin], the Km at LuHNL [2] came to 2.7 ± 0.3 mM; at LuHNL [4] it was 5.4 ± 2.3 mM. Moreover, the “X-ray crystal structure, 1.58 Å” value at LuHNL [3] is recorded as “The structures for acetone cyanohydrin (CNH) complexed LuHNL (LuHNL_CNH)”.
As to `NC(=O)c1ccc[n+]([C@@H]2O[C@H](COP(=O)(O)OP(=O)(O)OC[C@H]3O[C@@H](n4cnc5c(N)ncnc54)[C@H](O)[C@@H]3O)[C@@H](O)[C@H]2O)c1` [NAD^+], the “X-ray crystal structure, 1.48 Å; NAD+ quantitation” value at LuHNL [5] is on record as “electron density of NAD^+ was observed in the crystal without the addition of exogenous NAD^+”.

B1: Hydroxynitrile lyase from Linum usitatissimum (LuHNL), N-terminally His-tagged (enzyme)
chain: MASLPVSFAKPDKNGVITCKAIMLKEAKLPGMSYADTVQIIDIQVDPPQNVELRVKMLCASVCRTDILTIEGFMAPTQFPKINGHEGVGIIESMGPDTKNFKVGDVIVAPTLGECQTCSSCRSGRTNFCQNYGANESALEPDGTSRFSYIDSDGKKKLLYYKLGCSTWTQYMVVDSNYATKLNEIAPELPPPHGSILSCAFATGYGAVWLDAAVQEGDSVAIFGVGSVGISAVIAAKELKAKQIIVVDRNEYKLKMAMELGATHCINSEKLPEGVTPSQAVRKLTPKEVGVDASIESSGYDVFMNEAMKAAIHGKAKTVITGEGIYENDRIFFDFKDFLFGGNVVGNVTGRVRIHSDFPGLLRKAQEPVIRAGMDKILGYDAATMKCKYEVDIREGTPALLKALEEVENVDCVKLVIKLNDY
modifications: S-nitrosylation of Cys265 proposed from the electron density in the crystal (not detected in LuHNL solution)
notes: Hydroxynitrile lyase from Linum usitatissimum, gene of GenBank AF024588.1 (protein AAB81956.1), which has Thr117; Each subunit holds one NAD+, two Zn2+ and one Mg2+; The gene was cloned between NdeI and BamHI of pET-15b; also called N-His-LuHNL; LuHNL-wild; source: SHuffle T7 Express E. coli, pET-15b, purified (Ni Sepharose, Mono Q)
As for B1, the “stoichiometry N” value in series [6] is 2.
